# Positions count from the first letter of the chain named. Entries after “also recorded” stand apart in the source; their conditions may differ. Read-outs that look alike come from different tables or passages of the source.
# Assays:
# M1 mAChR [1] = target: T1, M1 mAChR (Homo sapiens, UniProt P11229)
# T1 sequence (P11229 1-460): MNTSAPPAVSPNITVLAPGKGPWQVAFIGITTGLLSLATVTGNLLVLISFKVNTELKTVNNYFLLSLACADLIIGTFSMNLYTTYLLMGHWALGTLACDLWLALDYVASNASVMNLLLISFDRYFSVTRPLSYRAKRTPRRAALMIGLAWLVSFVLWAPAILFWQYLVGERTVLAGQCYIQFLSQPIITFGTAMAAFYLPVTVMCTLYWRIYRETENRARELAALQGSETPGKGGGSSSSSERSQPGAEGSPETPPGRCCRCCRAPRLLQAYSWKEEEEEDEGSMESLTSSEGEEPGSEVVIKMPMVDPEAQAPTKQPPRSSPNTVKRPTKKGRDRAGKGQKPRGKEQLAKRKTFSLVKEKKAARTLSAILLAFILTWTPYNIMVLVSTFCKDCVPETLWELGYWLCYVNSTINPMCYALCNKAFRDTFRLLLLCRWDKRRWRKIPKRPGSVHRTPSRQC
# M1 mAChR [2] = target: T2, M1 mAChR (Rattus norvegicus, UniProt P08482); experiment: biochemical
# T2 sequence (P08482 1-460): T1 sequence (P11229 1-460) with A5V, T254S, P309S, R320K, A337G, I413V
# rat M1 mAChR = target: T3, rat M1 mAChR (Rattus norvegicus, UniProt P08482); experiment: αAPPs secretion in PC12 cells stably transfected with rat M1 mAChR; type: cell-based; conditions: 0.1 nM to 1 μM, not observed in untransfected PC12
# T3 construct: expressed in transfected cells; host or cells: rat pheochromocytoma PC12 cells
# T3 sequence (P08482 whole entry): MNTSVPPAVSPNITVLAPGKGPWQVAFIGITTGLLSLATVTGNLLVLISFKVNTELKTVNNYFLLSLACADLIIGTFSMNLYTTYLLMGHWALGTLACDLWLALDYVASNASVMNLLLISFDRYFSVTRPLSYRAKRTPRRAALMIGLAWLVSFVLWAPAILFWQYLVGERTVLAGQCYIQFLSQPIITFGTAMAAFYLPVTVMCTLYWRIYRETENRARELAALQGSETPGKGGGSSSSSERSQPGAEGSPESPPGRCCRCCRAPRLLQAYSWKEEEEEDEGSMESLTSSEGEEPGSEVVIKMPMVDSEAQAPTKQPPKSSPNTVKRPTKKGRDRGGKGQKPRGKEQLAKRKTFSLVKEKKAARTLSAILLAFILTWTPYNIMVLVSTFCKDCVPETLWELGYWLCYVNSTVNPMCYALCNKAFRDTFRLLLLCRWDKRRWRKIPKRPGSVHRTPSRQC
# Procedure: α-APPs Secretion studies following incubation with the tested compounds were performed as described in Haring, et al. J. Neurochem., 1998, 71:2094-103. […] A day later, cells were washed twice with serum free media, and treated with the test compound at various concentrations ranging from 0.1 nM to 100 μM. […] After 1 hour the conditioned medium was collected to cold Eppendorf tubes, which included a protease inhibitor cocktail (0.1 mM phenylmethylsulphonyl fluoride (PMSF); 5 μg/ml leupeptin; 5 μg/ml pepstatin and 5 units/ml aprotinin) for determining αAPPs release. The protein content of each sample was concentrated using Centricon tubes (Amicon, Beverly, Mass.). […] CHO cells double transfected with human APP695 and M1 mAChR APPs bands were probed using anti-amyloid beta protein (1:1000, monoclonal 6E10 antibody, MAB1560, Chemicon) and peroxidase-linked rabbit anti mouse IgG (1:5,000; Jackson Immuno Research, PA). PC12 cells stably transfected with M1 mAChR APPs bands were probed using the anti-Alzheimer precursor protein A4 (1:4,000; monoclonal 22C11 antibody, Boehringer Mannheim) and the peroxidase-linked rabbit anti mouse IgG (1:20,000; Jackson Immuno Research, PA). […] Quantitative determination of the total APPs bands was performed by Scion Image program (NIH, Bethesda, USA). […]
# M1 mAChR [3] = target: T1, M1 mAChR; experiment: High-throughput profiling, binding at 10 μM; set-up: expressed in transfected cells
# Description: (§1) It was specifically designed to provide information not only on potential limitations of drug candidates, but also for off-target activity identification. […] In a further extension of this study, functional studies were done on most of these receptors.
# 5HT2A receptor = 5HT2A receptor (Homo sapiens, UniProt P28223); experiment: Functional study, agonist or antagonist
# 5HT2A receptor, sequence (P28223 whole entry): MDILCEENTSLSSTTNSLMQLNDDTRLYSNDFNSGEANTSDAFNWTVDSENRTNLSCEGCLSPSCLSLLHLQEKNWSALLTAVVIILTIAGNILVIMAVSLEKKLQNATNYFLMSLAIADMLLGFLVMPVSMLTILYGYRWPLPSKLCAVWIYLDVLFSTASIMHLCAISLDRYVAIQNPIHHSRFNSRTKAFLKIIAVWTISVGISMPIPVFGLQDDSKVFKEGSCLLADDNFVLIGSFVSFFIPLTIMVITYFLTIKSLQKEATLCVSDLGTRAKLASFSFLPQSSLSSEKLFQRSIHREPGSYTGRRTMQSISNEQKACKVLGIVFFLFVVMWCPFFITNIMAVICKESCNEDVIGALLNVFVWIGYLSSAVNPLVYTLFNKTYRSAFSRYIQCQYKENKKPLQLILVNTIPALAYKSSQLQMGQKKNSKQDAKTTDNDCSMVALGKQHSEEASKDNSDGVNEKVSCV
# Description: as §1
# 5HT2C Receptor = 5HT2C Receptor (Homo sapiens, UniProt P28335); experiment: Functional study, agonist or antagonist
# 5HT2C Receptor, sequence (P28335 33-458): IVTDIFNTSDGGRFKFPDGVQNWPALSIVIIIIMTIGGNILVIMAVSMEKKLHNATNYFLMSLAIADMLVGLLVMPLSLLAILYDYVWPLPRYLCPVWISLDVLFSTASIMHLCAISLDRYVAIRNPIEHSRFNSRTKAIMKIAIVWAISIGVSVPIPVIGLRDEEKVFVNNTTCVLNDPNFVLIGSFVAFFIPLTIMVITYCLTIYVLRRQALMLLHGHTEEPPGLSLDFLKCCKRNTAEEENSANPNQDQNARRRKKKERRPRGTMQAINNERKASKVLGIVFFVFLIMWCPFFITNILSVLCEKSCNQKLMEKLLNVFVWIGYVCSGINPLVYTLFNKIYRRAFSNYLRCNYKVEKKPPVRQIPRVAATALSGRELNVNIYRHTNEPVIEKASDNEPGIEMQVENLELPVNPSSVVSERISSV
# Description: as §1
# Histamine 2 Receptor = Histamine 2 Receptor (Homo sapiens, UniProt P25021); experiment: Functional study, agonist or antagonist
# Histamine 2 Receptor, sequence (P25021 whole entry): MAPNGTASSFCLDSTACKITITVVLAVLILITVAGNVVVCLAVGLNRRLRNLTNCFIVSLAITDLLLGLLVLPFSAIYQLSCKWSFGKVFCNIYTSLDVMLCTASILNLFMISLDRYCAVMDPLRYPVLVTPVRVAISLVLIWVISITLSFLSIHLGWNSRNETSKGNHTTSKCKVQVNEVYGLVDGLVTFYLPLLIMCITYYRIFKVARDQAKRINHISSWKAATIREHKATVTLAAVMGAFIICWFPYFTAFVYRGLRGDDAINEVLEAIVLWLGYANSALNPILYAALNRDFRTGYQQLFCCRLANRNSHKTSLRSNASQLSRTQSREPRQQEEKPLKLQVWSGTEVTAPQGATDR
# Description: as §1
# sigma 1 receptors = target: T4, sigma 1 receptors (Cavia porcellus, UniProt Q60492); experiment: Displacement of tritiated-pentazocine from guinea-pig cerebral cortex; type: binding
# T4 construct: displacement assay of tritiated-pentazocine from guinea-pig cerebral cortex; from tissue; host or cells: guinea-pig cerebral cortex
# T4 sequence (Q60492 whole entry): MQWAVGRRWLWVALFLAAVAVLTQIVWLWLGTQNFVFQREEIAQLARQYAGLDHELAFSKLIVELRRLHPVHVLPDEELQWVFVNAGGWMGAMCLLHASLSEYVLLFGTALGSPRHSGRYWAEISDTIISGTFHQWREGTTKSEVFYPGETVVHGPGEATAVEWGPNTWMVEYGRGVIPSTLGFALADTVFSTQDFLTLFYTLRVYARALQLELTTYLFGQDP
# Description: as §1
# α7 nicotinic receptor = α7 nicotinic receptor (Homo sapiens, UniProt P36544); experiment: Binding to α7 nicotinic receptor; conditions: 0.1 nM-10 μM
# α7 nicotinic receptor, sequence (P36544 23-502): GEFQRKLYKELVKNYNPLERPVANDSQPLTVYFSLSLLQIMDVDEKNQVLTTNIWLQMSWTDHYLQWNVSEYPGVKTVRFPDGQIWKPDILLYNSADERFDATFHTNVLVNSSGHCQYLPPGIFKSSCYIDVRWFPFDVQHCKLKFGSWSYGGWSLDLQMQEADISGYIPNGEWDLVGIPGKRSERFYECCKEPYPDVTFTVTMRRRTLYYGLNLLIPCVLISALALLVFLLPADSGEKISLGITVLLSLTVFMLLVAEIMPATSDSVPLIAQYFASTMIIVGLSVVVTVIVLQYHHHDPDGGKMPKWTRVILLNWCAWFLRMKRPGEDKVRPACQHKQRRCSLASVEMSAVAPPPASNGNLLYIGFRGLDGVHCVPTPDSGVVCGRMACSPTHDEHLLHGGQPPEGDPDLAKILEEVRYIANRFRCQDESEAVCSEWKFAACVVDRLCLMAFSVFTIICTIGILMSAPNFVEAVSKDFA
# Description: as §1
# M1 mAChR [4] = target: T2, M1 mAChR; conditions: [3H]PZ, rat cortical membranes
# PC12M1 cells = experiment: Mitochondrial apoptosis pathway, Bax and Bcl-2 immunoreactivity in PC12M1 cells; set-up: Emax: dose or concentration left out as unconfirmed
# Procedure: These cells were partially differentiated (2-3 days), as observed under microscope. […] The pellet (rich mitochondrial fraction) was re-suspended with 200 μl Ripa buffer and lysed by rapid passage through a syringe needle (23G) for five to six times. The lysate was then used for further evaluation.
# Bands were probed using the Rabbit Bax antibody (1:1000, Cell signaling, Cat. No. 2772) and Rabbit Bcl-2 antibody (1:1000, Cell signaling, Cat. No. 2870) followed by anti rabbit IgG (H&L) HRP (1:5,000, Jackson Immuno Research, 111-035-144).
compound,measurement,setting,value
"C[C@@H]1SC2(CCN(C)CC2)CN1C(=O)CCc1c[nH]c2ccccc12 (single isomer, unassigned) [AF710B]",effect of brucine pre-incubation on elevation of intracellular calcium ions,M1 mAChR [1],no such effect; also recorded: slight inhibition
same,Ki,M1 mAChR [2],0.046 nM
same,Ki,"M1 mAChR [2]; KH, brucine experiment, without brucine",0.015 nM
same,Ki,"M1 mAChR [2]; KH, with brucine 0.1 mM",0.034 nM
same,Ki,"M1 mAChR [2]; KL, brucine experiment, without brucine",34000 nM
same,Ki,"M1 mAChR [2]; KL, with brucine 0.1 mM",15000 nM
same,release of αAPPs,rat M1 mAChR,enhanced the release of αAPPs
same,binding to M1 mAChR,M1 mAChR [3],binds
same,agonist or antagonist activity on 5HT2A receptor,5HT2A receptor,inactive
same,agonist or antagonist activity on 5HT2C receptor,5HT2C Receptor,inactive
same,agonist or antagonist activity on histamine 2 receptor,Histamine 2 Receptor,inactive
same,Ki,sigma 1 receptors; read-out: sigma 1 receptors KH,1.4 nM
same,Ki,sigma 1 receptors; read-out: sigma 1 receptors KL,248 nM
same,binding to α7 nicotinic receptor,α7 nicotinic receptor,does not bind
same,fraction of higher affinity binding site,M1 mAChR [4],29%
same,fraction of lower affinity binding site,M1 mAChR [4],71%
same,Ki,M1 mAChR [4]; read-out: lower affinity binding site KL,41000 nM
same,Bax elevation after NGF deprivation,PC12M1 cells; PC12M1 cells,attenuated Bax elevation
same,"Bcl-2, maximum effect","PC12M1 cells; PC12M1 cells, Aβ 25-35, 1 nM",164±32% of control
same,Emax,"PC12M1 cells; Rattus norvegicus, read-out: Aβ 25-35 induced neurotoxicity expressed as Bax/Bcl2, maximum effect",18%

# — patent US9034891B2, “Bicyclic heterocyclic spiro compounds” (ISRAEL INSTITUTE FOR BIOLOGICAL RESEARCH, priority 2009, dated 2015)
